One molecule from patent US20060100168A1, “Method of treating cancer using adenosine and its analogs” (The Trustee of Boston University, priority 2002, published 2006) can be followed below.

Test [1] has as its system MCF-7 cells. Description: Apoptosis by propidium iodide staining and flow cytometry (sub-diploid events). The class given is cell-based, human. Conditions: 100 μM. The protocol: (§1) Flow Cytometry and Apoptosis Analysis: Cells were detached from tissue culture plates by trypsin treatment. Cells were collected by centrifugation at 1200 g for 5 minutes and washed once with PBS. Staining of cells with propidium iodide and analysis on a flow cytometer (FACScan, Becton Dickinson, Research Triangle Park, N.C.) was performed as described before (42). Data were analyzed with CellQuest software (Becton Dickinson, Research Triangle Park, N.C.). The percentage of cells appearing with a ploidy level smaller than a diploid content was calculated as an estimate of cells undergoing apoptosis.

Test [2] relates to estrogen receptor α (ERα). Description: ERα protein level by Western blot in MCF-7 cells. The format is cell-based, human. On the procedure: Western Blot Analysis: Cells were washed three times in cold 1×PBS, and collected by scraping on ice. Western blot analysis was performed as we described before with the chemiluminescence method (41). […] Cyclin A, cyclin B1 and p27 antibodies were used at 1:500 dilutions. Cyclin E antibody was used at 1:1000 dilutions.
A general note: A western blot detects proteins with antibodies after separation by electrophoresis.

Test [3] deals with MCF-7 cells. As to the kind of experiment: Cell cycle analysis by flow cytometry. The format is cell-based, human. The protocol: as §1
The subject of test [4] is Hs578T cells. Description: Anchorage-dependent growth assay. The note with it: 100 μM, three days. The format is cell-based, human. The protocol: (§2) Anchorage-dependent growth assay: Cells were plated into 6-well plates and grown overnight before treatments. The seeding concentration of MCF-7 cells was 2×10^5/well, which was determined during preliminary experiments as not allowing the cells to reach confluency within 3 days. Cells were treated either with vehicle or ligands, as indicated. Cells were detached by incubation with trypsin (Invitrogen, Carlsbad, Calif.) and counted with a hemacytometer before or after treatment.

In test [5] the test system is ZR-75 cells. As to the kind of experiment: Anchorage-dependent growth assay. The class given is cell-based, human. The note with it: 100 μM, three days. The protocol:
as §2

Test [6] relates to primary rat bone marrow cells. As to the kind of experiment: Thymidine incorporation assay. Conditions: 24 hours, IB-MECA at 100 μM. The class given is cell-based. The protocol: Thymidine Incorporation Assay. Thymidine incorporation assays were performed as described (Zhang, Y., Wang, Z., and Ravid, K. The cell cycle in polyploid megakaryocytes is associated with reduced activity of cyclin B1-dependent cdc2 kinase. J Biol Chem, 271: 4266-4272, 1996) with modifications. Rat bone marrow cells were cultured in 25 cm^2 flasks at a concentration of 20×10^6 cells per 2 ml. After drug treatment for 24 hours, cells were incubated with ^3H-thymidine at a final concentration of 3 μCi/ml for 8 hours. For MCF-7 cells, cells were cultured in 6-well plates and incubated with ^3H-thymidine for 2 hours after drug treatment. Cells were divided into two portions, sixty percent of which were processed as described (Id.) to obtain tritium counts. The rest of the cells were lysed with Western blotting lysis buffer and protein concentrations were determined by Bio-Rad protein assay reagent (Bio-Rad, Hercules, Calif.). Tritium counts were normalized with corresponding protein concentrations to account for cell number variations.

Test [7] concerns cyclin A, cyclin B1, cyclin E, p27. As to the kind of experiment: Western blot of cyclins and Cdk inhibitor in MCF-7 cells. The format is cell-based, human. Conditions: 100 μM. The protocol: (§3) Western Blot Analysis: Cells were washed three times in cold 1×PBS, and collected by scraping on ice. Western blot analysis was performed as we described before with the chemiluminescence method (41). Antibodies used in this study were: ERα (NeoMarkers, Ab-15), Cyclin A (Santa Cruz Biotech, H-432), Cyclin B1 (Santa Cruz Biotech, H-433), Cyclin E (Upstate Biotech, HE-12), p27 (Santa Cruz Biotech, F-8). ERα antibody was used at 1:100 dilutions. Cyclin A, cyclin B1 and p27 antibodies were used at 1:500 dilutions. Cyclin E antibody was used at 1:1000 dilutions.

Test [8] relates to cyclin levels in HeLa cells. As to the kind of experiment: Western blot of cyclins in HeLa cells. Conditions: data not shown. The format is cell-based, human. On the procedure: as §3
Test [9] concerns ERE promoter activity (transcriptional activity of endogenous ERα). Description: Reporter gene assay pERE-Tk-Luc in MCF-7 cells. The format is cell-based, human. The note with it: MCF-7 transfected with pERE-Tk-Luc; 12 hours. The protocol:
(§4) Transfections and Reporter Gene Assay: Transient transfection was performed using FuGene6 (Roche, Indianapolis, Ind.) transfection reagent according to manufacturer's protocol. Circular reporter plasmid pERE-Tk-Luc at 10 μg and 10 μg of pCMV-β-Gal (as a measure of efficiency of trasnfection) were transfected with 50 μl of FuGene6. Cells were split into 6 well plates 12 hours after transfection, and incubated overnight in fresh medium. […] Luciferase and β-galactosidase activities were measured as described before (43, 44).
For orientation: A reporter such as luciferase makes a cellular process visible.

Test [10] concerns MCF-7 cells overexpressing ERα. Description: Growth of MCF-7 cells transiently transfected with pcDNA3-ERα. The class given is cell-based, human. The note with it: 100 μM; one day; transfection efficiency approximately 40%. The protocol:
as §4, with “Anchorage-dependent growth assay: Cells were plated into 6-well plates and grown overnight before treatments. The seeding concentration of MCF-7 cells was 2×10^5/well, which was determined during preliminary experiments as not allowing the cells to reach confluency within 3 days. Cells were treated either with vehicle or ligands, as indicated. Cells were detached by incubation with trypsin (Invitrogen, Carlsbad, Calif.) and counted with a hemacytometer before or after treatment. Transfections” for “Transfections”

Test [11] concerns ERα protein in T47D cells. As to the kind of experiment: ERα protein level in T47D cells. The class given is cell-based, human. The note with it: not shown. On the procedure: as §3
Test [12] has as its system Akt (Ser 473). As to the kind of experiment: Akt phosphorylation in MCF-7 cells. Conditions: not shown. The class given is cell-based, human.

Values joined by “and” are separate entries in the source; they are usually repeats but may differ in a detail not shown here. Identical values can stand only once.

Consider `CNC(=O)[C@H]1O[C@@H](n2cnc3c(NCc4cccc(I)c4)ncnc32)[C@H](O)[C@@H]1O` [IB-MECA, N^6-(3-iodobenzyl)adenosine-5′-N-methyluronamide], for which the “Apoptosis, in words” value in test [1] (two days) is listed as “non significant change”. In test [1] (2 days of treatment, except adenosine (500 μM) and inosine (1 mM), number of apoptotic cells compared to vehicle control (set to 1), average ± SD), this molecule had an Apoptosis of 1.12 ± 0.02. Besides, the “ERα Level” value in test [2] (12 hours, 100 μM, except adenosine (500 μM), Western blot quantitated, vehicle control set to 1, average of two experiments) is listed as 0.23. Moreover, in test [2] (Western blot), the “ERα protein level, in words” value is “decreased”. For the same molecule, the ERα protein degradation entry in test [2] (protein synthesis inhibited by cycloheximide 50 μg/ml, 100 μM) is “did not notice any significant change in ERα protein degradation”. The “Percentage of cells in G2/M (tetraploid DNA content)” value in test [3] (100 μM for 2 days, vehicle 24.6%) is 23.4% and 23%. For the same molecule, the “Percentage of cells in S phase” value in test [3] (100 μM for 2 days, vehicle 25.2%) is 12.3% and 12%. Moreover, the “Percentage of cells in G1 phase (diploid DNA content)” value in test [3] (100 μM for 2 days, vehicle 50.2%) was 64.2% and 64%. In addition, in test [3] (100 μM, except adenosine (500 μM) and inosine (1 mM), first number in parentheses), the “Percentage change of diploid (G0 or G1 phase) population compared to vehicle-treated cells” value is reported as 28%. The “Percentage change of S phase population compared to vehicle-treated cells” value in test [3] (100 μM, except adenosine (500 μM) and inosine (1 mM), second number in parentheses) is −51%. For the same molecule, the “Percentage change of tetraploid (G2 or M phase) population compared to vehicle-treated cells” value in test [3] (100 μM, except adenosine (500 μM) and inosine (1 mM), third number in parentheses) is −5%. In addition, the “Cell counts after treatment compared to day 0, in words” value in [4] was “affected more severely”. For the same molecule, in [5], the “Cell counts after treatment compared to day 0, in words” value is recorded as “decreased only mildly”. In addition, the “Thymidine incorporation reduced to” value in test [6] amounted to 68%. In test [7], the “Cyclin A and B1 levels” value is reported as “downregulated”; the “Cyclin E levels” value was “elevated”; the “cdk inhibitor p27 level” value is recorded as “sharp increase”. Moreover, the Cyclin levels entry in test [8] was “no significant change”. Further, the “Drop of ERE promoter activity” value in test [9] is “more than 5 fold”. Moreover, the “Effect on growth of ERα-overexpressing cells” value in test [10] was “moderate effect on growth”. The “ERα protein levels, in words” value in test [11] was “Reduction of ERα protein levels”. Besides, the “Akt phosphorylation (at Ser 473)” value in [12] is listed as “induced Akt phosphorylation”.
